Measured values published in patent publication US11866430B2, “Naphthyridinone compounds useful as T cell activators” (priority 2018, dated 2024).
Read-outs that look alike come from different tables or passages of the source.

Experiments:
human DGKα = human DGKα (Homo sapiens (Human), UniProt P23743); assay: biochemical; conditions: detergent/lipid micelle substrate; read-out: DGKα IC50
Summary of the method: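 Enzymes were baculovirus/Sf9 full-length human DGKα or DGKζ with His tag. The substrate was PS/DAG in octyl glucoside micelles, in MOPS pH 7.5 buffer with NaCl, MgCl2, CaCl2 and DTT.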

[1] = tested on: pre-activated CD4 T cells and Raji cells; assay: Raji CD4 T Cell IL2 Assay; format: cell-based
naïve human CD8 T cells [2] = assay: cells; conditions: 3 μM Example 40 co-stimulation as 100% activation
Summary of the method: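 Thawed frozen cells, 40,000/well, stimulated on plate-bound anti-CD3 (coated at 0.05 μg/mL) plus soluble anti-CD28 0.1 μg/mL; compounds added immediately after plating. After 20 h at 37° C., supernatant IFN-γ quantitated by AlphaLISA, counts converted to IFN-γ concentration […].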

naïve human CD8 T cells [3] = assay: Human CD8 T cells pERK Assay; format: cell-based; conditions: T-cell, read-out: HuCD8 pERK IC50
Method: Frozen naïve human CD8 T cells were thawed in AIM-V media, incubated for 2 h in 37° C., and counted. The CD8 positive T cells were added to 384-well tissue culture plate at 20,000 cells per well in AIM-V media. One compound was added to each well, then bead bound anti-human CD3 and anti-CD28 mAb were added at final concentration of 0.3 μg/mL. The cells were incubated at 37° C. for 10 minutes. The reaction was stopped by adding lysis buffer from the AlphaLISA Surefire kit. (Perkin Elmer, cat #ALSU-PERK-A). Lysate (5 μL per well) was transferred into a new 384-well white assay plate for pERK activation measurement.

[4] = Homo sapiens, T-cell, read-out: HuCD8 INFG Normalized EC50, anti-CD3 plus anti-CD28 as baseline
[5] = read-out: HuCD8 INFG Normalized EC50, anti-CD3 plus anti-CD28 as baseline

human DGKα, sequence (P23743 other isoform, or with tags, fused parts or gaps): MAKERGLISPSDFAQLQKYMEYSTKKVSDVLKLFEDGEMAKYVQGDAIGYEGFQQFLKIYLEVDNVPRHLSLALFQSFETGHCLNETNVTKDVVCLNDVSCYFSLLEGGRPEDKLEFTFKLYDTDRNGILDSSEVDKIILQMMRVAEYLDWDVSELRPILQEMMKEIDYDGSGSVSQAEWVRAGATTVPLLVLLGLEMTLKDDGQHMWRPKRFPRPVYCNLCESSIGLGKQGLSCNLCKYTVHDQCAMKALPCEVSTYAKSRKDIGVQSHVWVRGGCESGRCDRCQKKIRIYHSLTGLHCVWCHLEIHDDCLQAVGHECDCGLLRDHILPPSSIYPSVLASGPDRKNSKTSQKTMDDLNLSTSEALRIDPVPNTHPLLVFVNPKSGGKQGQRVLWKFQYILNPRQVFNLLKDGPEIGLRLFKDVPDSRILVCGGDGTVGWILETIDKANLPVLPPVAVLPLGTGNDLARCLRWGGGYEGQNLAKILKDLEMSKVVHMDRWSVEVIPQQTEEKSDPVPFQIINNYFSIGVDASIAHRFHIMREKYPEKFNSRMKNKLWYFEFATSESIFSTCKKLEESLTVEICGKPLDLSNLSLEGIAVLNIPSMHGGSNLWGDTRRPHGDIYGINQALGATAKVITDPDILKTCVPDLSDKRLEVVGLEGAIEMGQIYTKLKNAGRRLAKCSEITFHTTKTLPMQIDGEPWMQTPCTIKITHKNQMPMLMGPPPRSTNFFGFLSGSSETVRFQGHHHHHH

| SMILES | IC50 (human DGKα) | EC50 (naïve human CD8 T cells [2]; [4]) | other results |
| --- | --- | --- | --- |
| COc1cc(C#N)ccc1CN1CCN(c2c(C#N)c(=O)n(C)c3ccc(Cl)nc23)CC1 [Example 424, 6-chloro-4-{4-[(4-cyano-2-methoxyphenyl)methyl]piperazin-1-yl}-1-methyl-2-oxo-1,2-dihydro-1,5-naphthyridine-3-carbonitrile] | 770 nM | – | IC50 ([1]; Homo sapiens, Raji): > 100000 nM |
| Cn1c(=O)c(C#N)c(N2CCN(C(C)(C)c3ccc(F)cc3)CC2)c2nc(Cl)ccc21 [Example 425, 6-chloro-4-{4-[2-(4-fluorophenyl)propan-2-yl]piperazin-1-yl}-1-methyl-2-oxo-1,2-dihydro-1,5-naphthyridine-3-carbonitrile] | 1800 nM | – | IC50 ([1]; Homo sapiens, Raji): > 100000 nM |
| COc1cc(F)ccc1C(c1ccc(F)cc1)N1CCN(c2c([N+](=O)[O-])c(=O)n(C)c3ccc(C#N)nc23)CC1 (single isomer, unassigned) [Example 124, 8-(4-((4-fluoro-2-methoxyphenyl)(4-fluorophenyl)methyl)piperazin-1-yl)-5-methyl-7-nitro-6-oxo-5,6-dihydro-1,5-naphthyridine-2-carbonitrile] | 750 nM | 10 nM | IC50 (naïve human CD8 T cells [3]): 360 nM |
| C#CCn1c(=O)c([N+](=O)[O-])c(N2CCN(C(CC)c3ccc(F)cc3)CC2)c2nc(C#N)ccc21 (single isomer, unassigned) [Example 141, 8-{4-[1-(4-fluorophenyl)propyl]piperazin-1-yl}-7-nitro-6-oxo-5-(prop-2-yn-1-yl)-5,6-dihydro-1,5-naphthyridine-2-carbonitrile] | 270 nM | 30 nM | – |
| Cc1ccc(CN2CCN(c3c(C#N)c(=O)n(C)c4ccc(Cl)nc34)CC2)cc1 [Example 386, 6-chloro-1-methyl-4-{4-[(4-methylphenyl)methyl]piperazin-1-yl}-2-oxo-1,2-dihydro-1,5-naphthyridine-3-carbonitrile] | 150 nM | 960 nM | – |
| CC(C)C(c1ccc(F)cc1)N1CCN(c2c(C#N)c(=O)n(C)c3ccc(Cl)nc23)CC1 (single isomer, unassigned) [Example 315, 6-chloro-4-{4-[1-(4-fluorophenyl)-2-methylpropyl]piperazin-1-yl}-methyl-2-oxo-1,2-dihydro-1,5-naphthyridine-3-carbonitrile] | – | – | IC50 ([1]; Homo sapiens, Raji): 250 nM |
| Cn1c(=O)c(C#N)c(N2CCN(C(c3ccc(F)cc3)c3ccccc3O)CC2)c2nc(C#N)ccc21 (stereo not drawn) [Example 11, 8-{4-[(4-fluorophenyl)(2-hydroxyphenyl)methyl]piperazin-1-yl}-5-methyl-6-oxo-5,6-dihydro-1,5-naphthyridine-2,7-dicarbonitrile] | 450 nM | – | – |
| COc1ccccc1C(c1ccc(F)cc1)N1CCN(c2c(C#N)c(=O)n(C)c3ccc(Br)nc23)CC1 (single isomer, unassigned) [Example 13, 6-bromo-4-{4-[(4-fluorophenyl)(2-methoxyphenyl)methyl]piperazin-1-yl}-1-methyl-2-oxo-1,2-dihydro-1,5-naphthyridine-3-carbonitrile] | 9500 nM | 10000 nM | IC50 [1]: > 100000 nM |
| Cc1cccc(CN2CCN(c3c(C#N)c(=O)n(C)c4ccc(Cl)nc34)CC2)c1O [Example 391, 6-chloro-4-{4-[(2-hydroxy-3-methylphenyl)methyl]piperazin-1-yl}-1-methyl-2-oxo-1,2-dihydro-1,5-naphthyridine-3-carbonitrile] | 260 nM | – | – |
| Cc1ccc2c(n1)c(N1CCN(C(C)c3ccc(F)cc3)CC1)c(Br)c(=O)n2C (stereo not drawn) [Example 224, 3-bromo-4-(4-(1-(4-fluorophenyl)ethyl)piperazin-1-yl)-1,6-dimethyl-1,5-naphthyridin-2(1H)-one] | 540 nM | – | – |
| COc1cc(F)ccc1C(c1ccc(F)cc1)N1CCN(c2c(C#N)c(=O)n(C)c3ccc(C#N)nc23)CC1 (single isomer, unassigned) [Example 406, 8-{4-[(4-fluoro-2-methoxyphenyl)(4-fluorophenyl)methyl]piperazin-1-yl}-5-methy-6-oxo-5,6-dihydro-L5-naphthyridine-2,7-dicarbonitrile] | – | – | EC50 (naïve human CD8 T cells [2]; [5]): 410 nM |
| CC(c1ccc(F)cc1)N1CCN(c2c(C#N)c(=O)n(C)c3ccc(Cl)nc23)CC1 (single isomer, unassigned) [Example 388, 6-chloro-4-{4-[1-(4-fluorophenyl)ethyl]piperazin-1-yl}-1-methyl-2-oxo-1,2-dihydro-1,5-naphthyridine-3-carbonitrile] | 53 nM | – | – |
| C#CCn1c(=O)c([N+](=O)[O-])c(N2CCN(C(c3ccc(F)cc3)c3ccc(F)cc3O)CC2)c2nc(C#N)ccc21 (single isomer, unassigned) [Example 121, 8-(4-((4-fluoro-2-hydroxyphenyl)(4-fluorophenyl)methyl)piperazin-1-yl)-7-nitro-6-oxo-5-(prop-2-yn-1-yl)-5,6-dihydro-1,5-naphthyridine-2-carbonitrile] | 1900 nM | – | – |
| CC(c1ccc(F)cc1)N1CCN(c2c([N+](=O)[O-])c(=O)n(C)c3ccc(C#N)nc23)CC1 (single isomer, unassigned) [Example 44, 8-(4-(1-(4-fluorophenyl)ethyl)piperazin-1-yl)-5-methyl-7-nitro-6-oxo-5,6-dihydro-1,5-naphthyridine-2-carbonitrile] | 230 nM | 180 nM | – |
| C#CCn1c(=O)c([N+](=O)[O-])c(N2CCN(C(c3ccc(F)cc3)C3CC3)CC2)c2nc(C#N)ccc21 (single isomer, unassigned) [Example 143, 8-(4-(cyclopropyl(4-fluorophenyl)methyl)piperazin-1-yl)-7-nitro-6-oxo-5-(prop-2-yn-1-yl)-5,6-dihydro-1,5-naphthyridine-2-carbonitrile] | 1300 nM | 90 nM | IC50 (naïve human CD8 T cells [3]): 60 nM |
| Cn1c(=O)c([N+](=O)[O-])c(N2CCN(CC(O)c3ccc(F)cc3)CC2)c2nc(C#N)ccc21 (stereo not drawn) [Example 36, 8-{4-[2-(4-fluorophenyl)-2-hydroxyethyl]piperazin-1-yl}-5-methyl-7-nitro-6-oxo-5,6-dihydro-1,5-naphthyridine-2-carbonitrile] | 1400 nM | – | – |
| Cc1ccc2c(n1)c(N1CCN(Cc3cccc(Cl)c3O)CC1)c(C#N)c(=O)n2C [Example 389, 4-{4-[(3-chloro-2-hydroxyphenyl)methyl]piperazin-1-yl}-1,6-dimethyl-2-oxo-1,2-dihydro-1,5-naphthyridine-3-carbonitrile] | 850 nM | – | – |
| C#CCn1c(=O)c([N+](=O)[O-])c(N2CCN(C(C)c3ccc(F)cc3)CC2)c2nc(C#N)ccc21 (single isomer, unassigned) [Example 136, 8-(4-(1-(4-fluorophenyl)ethyl)piperazin-1-yl)-7-nitro-6-oxo-5-(prop-2-yn-1-yl)-5,6-dihydro-1,5-naphthyridine-2-carbonitrile] | 210 nM | – | – |
| Cc1ccc(CN2CCN(c3c(C#N)c(=O)n(C)c4ccc(Br)nc34)CC2)c(O)c1 [Example 372, 6-bromo-4-{4-[(2-hydroxy-4-methylphenyl)methyl]piperazin-1-yl}-1-methyl-2-oxo-1,2-dihydro-1,5-naphthyridine-3-carbonitrile] | 33 nM | – | IC50 ([1]; Homo sapiens, Raji): > 100000 nM |
| COc1cc(F)ccc1C(c1ccc(F)cc1)N1CCN(c2c(C#N)c(=O)n(C)c3ccc(C#N)nc23)CC1 (single isomer, unassigned) [Example 407, 8-{4-[(4-fluoro-2-methoxyphenyl)(4-fluorophenyl)methyl]piperazin-1-yl}-5-methy-6-oxo-5,6-dihydro-L5-naphthyridine-2,7-dicarbonitrile] | – | – | EC50 (naïve human CD8 T cells [2]; [5]): 120 nM |
| COc1cc(F)ccc1C(c1ccc(F)cc1)N1CCN(c2c(C#N)c(=O)n(C)c3ccc(Br)nc23)CC1 (single isomer, unassigned) [Example 17, 6-bromo-4-{4-[(4-fluoro-2-methoxyphenyl)(4-fluorophenyl)methyl]piperazin-1-yl}-1-methyl-2-oxo-1,2-dihydro-1,5-naphthyridine-3-carbonitrile] | 930 nM | 520 nM | – |
| Cc1ccc(CN2CCN(c3c(C#N)c(=O)n(C)c4ccc(Cl)nc34)CC2)c(F)c1 [Example 423, 6-chloro-4-{4-[(2-fluoro-4-methylphenyl)methyl]piperazin-1-yl}-1-methyl-2-oxo-1,2-dihydro-1,5-naphthyridine-3-carbonitrile] | 1400 nM | 460 nM | IC50 ([1]; Homo sapiens, Raji): > 100000 nM |
| C#CCn1c(=O)c([N+](=O)[O-])c(N2CCN(C(C)c3ccc(F)cc3)CC2)c2nc(C#N)ccc21 (single isomer, unassigned) [Example 137, 8-(4-(1-(4-fluorophenyl)ethyl)piperazin-1-yl)-7-nitro-6-oxo-5-(prop-2-yn-1-yl)-5,6-dihydro-1,5-naphthyridine-2-carbonitrile] | 280 nM | 40 nM | – |
